The values below come from paper PMC3606118, “Salvianolic Acid A, a Novel Matrix Metalloproteinase-9 Inhibitor, Prevents Cardiac Remodeling in Spontaneously Hypertensive Rats” (PLoS ONE, 2013).

Molecules are shown by their SMILES.

Experiment [1] concerns the target T1, MMP-9 CD (Homo sapiens, UniProt P14780, DEL217-390).
T1 construct: corresponding to residues 107–216 and 391–444; made in house
T1 sequence (P14780 with tags, fused parts or gaps DEL217-390 limits assumed): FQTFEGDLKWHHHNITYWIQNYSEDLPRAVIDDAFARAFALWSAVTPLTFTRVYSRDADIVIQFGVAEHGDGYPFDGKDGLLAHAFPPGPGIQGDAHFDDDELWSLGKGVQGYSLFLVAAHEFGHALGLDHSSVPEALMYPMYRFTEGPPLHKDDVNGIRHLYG
The experiment in a line: Real time binding by surface plasmon resonance (Biacore). The following applies: steady state affinity fit model; immobilized MMP-9 CD, 25°C; read-out: equilibrium dissociation constant (KD). How it is done: DNA fragments encoding the catalytic domain of MMP-9 (MMP-9 CD, corresponding to residues 107–216 and 391–444) were constructed and subcloned into a pET-15b vector (Novagen). […]. Surface plasmon resonance analysis was performed using Biacore 3000 (Biacore AB). In brief, MMP-9 CD protein (5.8 µmol/L) in 10 mmol/L sodium acetate buffer (pH 3.73) was covalently immobilized on the hydrophilic carboxymethylated dextran matrix of the CM5 sensor chip (BIAcore AB) using standard primary amine coupling procedure. Phenolic acid at various concentrations in HBS-EP running buffer (10 mmol/L HEPES pH 7.4, 150 mmol/L NaCl, 3.4 mmol/L EDTA and 0.005% surfactant P20) were injected at a constant flow rate of 30 µL/min at 25°C. All data were analyzed by BIAevaluation software and the sensorgrams were processed by automatic correction for nonspecific bulk refractive index effects.
In general terms: SPR reads the build-up and loss of mass on a sensor chip optically.

The target of experiment [2] is T1, MMP-9 CD. In words: MMP-9 inhibition assay (thiopeptolide, enzyme kinetic analysis). In kind it is biochemical. How it is done:
Phenolic acids at the indicated concentrations were incubated with the reaction mixtures contained MMP-9 CD (15 nmol/L) and 5,5′-dithiobis-(2-nitrobenzoic acid) (1 mmol/L) at 4°C for 30 min. The reaction was initiated by the addition of thiopeptolide (Ac-Pro-Leu-Gly-S-Leu-Leu-Gly-OEt). Hydrolysis of thiopeptolide was monitored at 412 nm using Benchmark Plus™ microplate spectrophotometer (Bio-Rad) at room temperature. Kinetic analysis of phenolic acids against MMP-9 CD was calculated using double reciprocal plots of 1/V versus 1/[thiopeptolide]. The slope of every double reciprocal plot is the Km ^app/Vmax of enzyme at different compound concentration. Secondary plot was drawn through Km ^app/Vmax versus compound concentration. Km ^app is apparent value of Km; Ki is inhibition constant; Ki was calculated using the equation Ki = [Km/Vmax][compound]/(Km ^app/Vmax –Km/Vmax).

The subject of experiment [3] is neonatal cardiac fibroblast. The experiment in a line: Transwell migration of neonatal cardiac fibroblast induced by MMP-9 CD. The class given is cell-based, Wistar rats. The following applies: 1 µmol/L SalA, 200 nmol/L MMP-9 CD, 24 h (MMP-9 alone 85.2±12.4, Con 25.9±2.1). How it is done: Primary cardiac fibroblast was obtained from neonatal rats and National Institutes of Health (NIH) Guide for the Care and Use of Laboratory Animals was followed throughout. Wistar rats (2–4 day old) were sacrificed by cervical dislocation; ventricles were minced and digested with 0.1% trypsin at 37°C for 8 min. The liberated cells were collected by centrifugations; non-digested chunk materials were further digested in 0.1% trypsin for an additional 8 min. This digestion procedure was repeated 3–4 times. All the liberated cells were pelleted by centrifugation at 1,000 rpm for 10 min, re-suspended in DMEM containing 10% fetal bovine serum (FBS), and cultured in a 100-mm noncoated culture flask at 37°C with 5% CO2 for 2 h. Adherent cardiac fibroblasts were collected and maintained in DMEM supplemented with 10% FBS, 100 U/mL penicillin, 100 µg/mL streptomycin [12]. […]
Transwell assay was employed to evaluate effects of SalA on neonatal cardiac fibroblast migration induced by MMP-9 CD. […] After incubating for 24 h, migrated cells (in the lower side of migration chamber) were stained with 0.1% crystal violet and counted with a microscope at 200 X magnification. Five to six view fields were counted on each membrane. Migration is expressed as the mean value of total number of migrated cells per field.

The subject of experiment [4] is neonatal cardiac fibroblasts. In words: Myofibroblast transformation (α-SMA immunofluorescence) induced by MMP-9 CD. In kind it is cell-based, Wistar rats. The following applies: 1 or 10 µmol/L SalA, 200 nmol/L MMP-9 CD, 24 h. How it is done: Primary cardiac fibroblast was obtained from neonatal rats and National Institutes of Health (NIH) Guide for the Care and Use of Laboratory Animals was followed throughout. Wistar rats (2–4 day old) were sacrificed by cervical dislocation; ventricles were minced and digested with 0.1% trypsin at 37°C for 8 min. The liberated cells were collected by centrifugations; non-digested chunk materials were further digested in 0.1% trypsin for an additional 8 min. This digestion procedure was repeated 3–4 times. All the liberated cells were pelleted by centrifugation at 1,000 rpm for 10 min, re-suspended in DMEM containing 10% fetal bovine serum (FBS), and cultured in a 100-mm noncoated culture flask at 37°C with 5% CO2 for 2 h. Adherent cardiac fibroblasts were collected and maintained in DMEM supplemented with 10% FBS, 100 U/mL penicillin, 100 µg/mL streptomycin [12]. Cardiac fibroblasts were treated by vehicle (Con); 200 nmol/L MMP-9 CD (MMP-9); 200 nmol/L MMP-9 CD plus 1 µmol/L SalA [MMP-9/SalA(1)]; or 200 nmol/L MMP-9 CD plus 10 µmol/L SalA [MMP-9/SalA(10)] for the following research. All the detections were conducted after 24 h treatment.
α-SMA expression was used to evaluate the effect of SalA on myofibroblast transformation from fibroblast induced by MMP-9 CD. Neonatal cardiac fibroblasts were cultured on glass slides until reaching ∼70% confluence. […]

With `O=C(/C=C/c1ccc(O)c(O)c1/C=C/c1ccc(O)c(O)c1)O[C@H](Cc1ccc(O)c(O)c1)C(=O)O` [SalA, salvianolic acid A], on MMP-9 CD [1], the Kd worked out at 0.8 µM. Also, at MMP-9 CD [2] (double reciprocal plots), the “inhibition mode on MMP-9” value is listed as “competitively”. Moreover, at MMP-9 CD [2] (spectrophotometric enzyme kinetic assay, thiopeptolide substrate), the affinity corresponds to a Ki of 5.74 ± 1.15 µM. The migrated cells in experiment [3] was determined as 45.3±9.1 cells per field. Further, the “α-SMA up-regulation (myofibroblast transformation) induced by MMP-9 CD” value in experiment [4] is “reversed the effects of MMP-9 CD”.

By Kd is commonly meant the free concentration of one partner at which half of the binding sites on the other are occupied at equilibrium, for simple one-to-one binding. In general, Ki refers to the equilibrium dissociation constant of an inhibitor or competing ligand from its target. Higher therefore signals lower affinity.
